Data: patent publication US5349127A, “Expression of herbicide metabolizing cytochromes P450” (priority 1992, dated 1994)

What was measured:
[1] = tested on: transformed tobacco seedlings; assay: Growth of transformed tobacco seed on medium with 10001 (Example 24); format: in vivo, Nicotiana tabacum; settings: AGS502 (no P450 gene), 100 days
Protocol: Tobacco seed from plants transformed with several P450SU1 and P450SU1+FeS-Bconstructions were tested for their ability to grow on tissue culture medium supplemented with compound 10001. Seed was placed on medium containing: 0, 5, 10, 20, and 40 nM of compound 10001. After 100 days, the plants were visually rated for their resistance (due to herbicide detoxification) to the herbicide treatment. All plants grown in the absence of herbicide and those treated with the lowest levels (5 nM and 10 nM) of 10001 had grown so large that no comparative rating was possible. The severely growth inhibited plants (those grown in the presence of 20 nM and 40 nM of compound 10001) were scored by comparing them to AGS502 plants (transformed without P450 gene) in Table 23.
SCORING SYSTEM: Visual comparison to AGS502 plants which uniformly appeared:
Ratings: 0=essentially identical to AGS 502 controls; 1=marginally larger ([…]1.2×) than AGS502; 2=clearly larger (1.2 to 2×) than AGS502; 3=substantially larger (>2×) than AGS502.

[2] = tested on: S. griseolus ATCC 11796; assay: Western blot for cytochrome P450SU1 after induction with 10001 (Example 3); format: cell-based, Streptomyces griseolus; settings: 36 mg of 10001 added six hours before harvesting; not found without 10001
Protocol: Western blot analysis of proteins is performed by separating the proteins by SDS polyacrylamide gel electrophoresis (Laemmli, Nature 227: 680, 1970, herein incorporated by reference) and then transferring the proteins to nitrocellulose and detecting the protein of interest with antibody specific for the protein as described by Towbin et al., Proc. Natl. Acad. Sci. U.S.A. 76: 4350-4354 (1979) and Bio-Rad bulletin 885 85-0335. (Bio-Rad Laboratories, Richmond, CA 94804), each herein incorporated by reference. Antiserum to cytochrome P450SU1 was that described by O'Keefe et al., Recent Advances in Phytochemistry 21: 151-173 (1987), herein incorporated by reference.
S. lividans containing pCAO200, containing pCAO200SU1-FeS-B#9 and S. lividans containing […] were grown separately in 400 ml of YEME broth with-shaking at 30° C. for approximately 36 hours. S. griseolus ATCC 11796 was grown in 400 ml of sporulation broth for approximately 30 hours. Six hours before harvesting the cells from the cultures, 200 ml of YEME was added to the S. lividans cells. Six hours before harvesting, the S. griseolus culture was split into two 200 ml aliquots and 100 ml of fresh sporulation broth was added to each. […] Cytochrome P450SU1 was detected in the cultures of S. lividans transformed with either pCAO200SU1-FeS-B#9 or pCAO200SU1#12 and in the S. griseolus ATCC 11796 culture induced with 10001.

[3] = tested on: transgenic Nicotiana tabacum cv. Xanthi plants; assay: In vitro pollen germination after spraying 10015 on tobacco with anther-specific P450SU1 (Example 28); format: in vivo
Protocol: Application of compound 10015 was as follows. The tapetal cells of the anther surround the developing pollen and are instrumental in supporting the development of mature pollen. Thus production of a toxin in the tapetal cells was expected to disrupt the development of normal mature pollen. The nontoxic compound 10015 was sprayed onto flowering transgenic plants that had anther-specific expression of P450SU1 mRNA. […] The 10015 was first dissolved in up to 0.8 ml of 0.01 N ammonium hydroxide and then diluted into AGWT (90.2% Acetone:4.8% Glycerol:4.8% Water:0.24% Tween 20 by volume). Little effect was seen when rates of less than 32 g/ha were applied. At 32 g/ha and above, effects were seen on the ability of pollen to germinate in vitro. Newly opened buds were collected at time intervals between four and 23 days after spraying. The anthers were removed and pollen was brushed into Brewbaker and Kwak medium (15% sucrose, 200 ppm calcium nitrate, 100 ppm boric acid). Growth of tubes from the pollen, indicating germination, was assessed after four hours of incubation by microscopic observation.

Compound	appearance of AGS502 plants ([1]; 10001 20 nM)	appearance of AGS502 plants ([1]; 10001 40 nM)	Cytochrome P450SU1 in culture (Western blot) [2]	pollen germination in vitro ([3]; A-T-SU1 plants 41A and 56 A, 32 g/ha, 7 to 11 days after application) [%]	pollen germination in vitro ([3]; A-T-SU1 plants 41A and 56 A, 32 g/ha, through 18 days on one plant, 13 days on the other)	pollen germination in vitro ([3]; plant 28A, 100 g/ha, 21 days)	pollen germination in vitro ([3]; plant 38A, 100 g/ha, 14 days, varying between buds)
CCOC(=O)c1ccccc1S(=O)(=O)NC(=O)Nc1nc(Cl)cc(OC)n1 [compound 10001, N-[(4-chloro-6-methoxy-pyrimidin-2-yl)aminocarbonyl]-2-ethoxycarbonylbenzenesulfonamide]	~1 cm tall, 6 leaves ~1 cm diameter	~0.5 cm tall, 6 leaves ~0.3 cm diameter, chlorotic	detected				
COc1cc(OC)nc(NC(=O)NS(=O)(=O)c2cccc3c2S(=O)(=O)N(C(C)C)C3)n1 [compound 10015]				0	less than 0.1%	less than 0.1%	1-25%
